Laboratory results reported in patent EP0297456A2, “Immunosuppressant peptides” (MERRELL DOW PHARMACEUTICALS INC., priority 1987, dated 1989).

Columns and labels:
[1] = system: Mixed Lymphocyte Cultures (C57BL/6 and DBA/2 leukocytes); experiment: Inhibition of ³H-thymidine incorporation in mixed lymphocyte cultures; type: cell-based; conditions: 120 hour incubation
Experimental: Inhibition of ³H-Thymidine Incorporation in Mixed Lymphocyte Cultures by Various Peptides
Spleens were aseptically removed and teased apart in RPMI 1640 culture media to obtain single cell suspensions. Erythrocytes were lysed by suspending cells in ACK buffer (0.155 M NH₄Cl, 0.1 mM EDTA, 0.01 M KHCO₃) and the remaining leukocytes washed. C57BL/6 (5 x 10⁵cells) and DBA/2 (5 x 10⁵cells) leukocytes were co-cultured in 0.1 ml RPMI-1640, supplemented with 2% fetal calf serum (FCS), in 96-well microtiter plates. Various concentrations of peptides were added at the initiation of cell culture. Following a 120 hour incubation (37°C), including a pulse with 1 µCi of [³H]TdR in the final 18 hours of culture, the cells were harvested with an automated cell harvester unit onto filter paper strips and placed in ACS scintillation fluid (Amersham, Oakville, Ontario). The amount of [³H]TdR incorporation was then measured in a Beckman LS 7800 liquid scintillation counter.

[2] = system: Anti-T₃ Stimulated Lymphocytes (Human peripheral blood mononuclear leukocytes MNL); experiment: Inhibition of ³H-thymidine incorporation in anti-T₃ stimulated lymphocytes; type: cell-based; conditions: 72 hour incubation
Experimental: Inhibition of ³H-Thymidine Incorporation in Anti-T₃ Stimulated Lymphocytes by Various Peptides
Human peripheral blood mononuclear leukocytes MNL were isolated by Ficoll-Hypaque density sedimentation. MNL ([…]) were cultured with anti-T₃ (1:10,000 dilution; Ortho Diagnostics) in 0.1 ml DMEM, supplemented with 2% FCS, in 96-well microtiter plates. Following a 72 hour incubation (37°C), including a pulse with 1 µCi of [³H]TdR in the final 18 hours of culture, the cells were harvested and counted as described in Example 6.

In the case of “H-Glu-Val-Val-Leu-Gln-Asn-Arg-Arg-Gly-Leu-Leu-OH (H-EVVLQNRRGLL-OH) [Example 4, peptide]”, the “% Inhibition” value ([1]; 4 µM BSA-conjugated peptide) is reported as 28%, the “³H-Thymidine Incorporation (cpm)” value ([1]; 4 µM BSA-conjugated peptide) is reported as 5751 ± 407 cpm and the “% Inhibition” value ([1]; 8 µM BSA-conjugated peptide) is reported as 54%. For the same substance, the “³H-Thymidine Incorporation (cpm)” value ([1]; 8 µM BSA-conjugated peptide) was 3063 ± 372 cpm, the “% Inhibition” value ([2]; 4 µM BSA-conjugated peptide) was 5% and the “³H-Thymidine Incorporation (cpm)” value ([2]; 4 µM BSA-conjugated peptide) was 54331 ± 4717 cpm. For the same substance, the “% Inhibition” value ([2]; 8 µM BSA-conjugated peptide) was 11% and the “³H-Thymidine Incorporation (cpm)” value ([2]; 8 µM BSA-conjugated peptide) was 39248 ± 5251 cpm.
“H-TRLTRKRGLKLATAL-NH2 [Example 2, peptide]” was tested, and the “% Inhibition” value ([1]; 14 µM BSA-conjugated peptide) was 45%, the “³H-Thymidine Incorporation (cpm)” value ([1]; 14 µM BSA-conjugated peptide) was 4406 ± 848 cpm and the “% Inhibition” value ([1]; 28 µM BSA-conjugated peptide) was 67%. The “³H-Thymidine Incorporation (cpm)” value ([1]; 28 µM BSA-conjugated peptide) was 2209 ± 1471 cpm, the “% Inhibition” value ([2]; 14 µM BSA-conjugated peptide) was 23% and the “³H-Thymidine Incorporation (cpm)” value ([2]; 14 µM BSA-conjugated peptide) was 44151 ± 2151 cpm. For the same substance, the “% Inhibition” value ([2]; 28 µM BSA-conjugated peptide) was 54% and the “³H-Thymidine Incorporation (cpm)” value ([2]; 28 µM BSA-conjugated peptide) was 20041 ± 3331 cpm.
In the case of “H-LRKLRKRLLRDADDL-NH2 [Example 1, peptide]”, the “% Inhibition” value ([1]; 9 µM BSA-conjugated peptide) is reported as 59%, the “³H-Thymidine Incorporation (cpm)” value ([1]; 9 µM BSA-conjugated peptide) is reported as 3267 ± 457 cpm and the “% Inhibition” value ([1]; 18 µM BSA-conjugated peptide) is reported as 73%. For the same substance, the “³H-Thymidine Incorporation (cpm)” value ([1]; 18 µM BSA-conjugated peptide) was 1800 ± 412 cpm, the “% Inhibition” value ([2]; 9 µM BSA-conjugated peptide) was 33% and the “³H-Thymidine Incorporation (cpm)” value ([2]; 9 µM BSA-conjugated peptide) was 38521 ± 5349 cpm. For the same substance, the “% Inhibition” value ([2]; 18 µM BSA-conjugated peptide) was 50% and the “³H-Thymidine Incorporation (cpm)” value ([2]; 18 µM BSA-conjugated peptide) was 21984 ± 3824 cpm.
With “H-LQNRRGLDLLFLKEGGL-NH2 [Example 3, peptide]” the “% Inhibition” value ([1]; 12 µM BSA-conjugated peptide) was 57%, the “³H-Thymidine Incorporation (cpm)” value ([1]; 12 µM BSA-conjugated peptide) was 3417 ± 263 cpm and the “% Inhibition” value ([1]; 24 µM BSA-conjugated peptide) was 80%. For the same substance, the “³H-Thymidine Incorporation (cpm)” value ([1]; 24 µM BSA-conjugated peptide) was 1328 ± 421 cpm, the “% Inhibition” value ([2]; 12 µM BSA-conjugated peptide) was 45% and the “³H-Thymidine Incorporation (cpm)” value ([2]; 12 µM BSA-conjugated peptide) was 31667.±.4729 cpm. The “% Inhibition” value ([2]; 24 µM BSA-conjugated peptide) was 68% and the “³H-Thymidine Incorporation (cpm)” value ([2]; 24 µM BSA-conjugated peptide) was 14027 ± 867 cpm.
